Active and inactive are the calls of the source. The calls are words filed in the database; no cut-off is given here.

For series [1], the system named is NCI-H2228. The series is described as follows: Antitumor activity against human NCI-H2228 cells xenografted in NOD.CB17-Prkdcscid/J mouse assessed as reduction in tumor volume at 50 mg/kg, iv administered daily for 5 days. The series is classed as functional, organism-based. The note with it: time 5.0 day. A general note: In xenograft studies the graft and the host belong to different species.

Series [2] can be described thus: Toxicity in human NCI-H2228 cell xenografted NOD.CB17-Prkdcscid/J mouse assessed as body weight loss at 50 mg/kg, iv administered once daily for 5 days. The series is classed as organism-based. As to conditions: in vivo, 120 h, time 5 day.
The test system of series [3] is NCI-H2228. Kind of series: Antitumor activity against human NCI-H2228 cells xenografted in NOD.CB17-Prkdcscid/J mouse assessed as increase in tumor regression at 12 mg/kg, iv administered daily for 5 days. The series is classed as functional, organism-based. The note with it: time 5.0 day.

In the case of `Nc1nc2[nH]cc(CCc3ccc(C(=O)N[C@@H](CCC(=O)O)C(=O)O)cc3)c2c(=O)[nH]1` [PEMETREXED], the outcome with NCI-H2228 [1] was Active. In series [2], the Activity result is “Toxic”. On to `CC(=O)O[C@H]1C(=O)[C@@]2(C)[C@H]([C@H](OC(=O)c3ccccc3)[C@]3(O)C[C@H](OC(=O)[C@H](O)[C@@H](NC(=O)c4ccccc4)c4ccccc4)C(C)=C1C3(C)C)[C@]1(OC(C)=O)CO[C@@H]1C[C@@H]2O`, for which the result in the series on NCI-H2228 [3] was Active.
